According to publication PMC9822396 (Molecules, 2022):
Like-named read-outs stand apart in the source and are kept apart here.

Tests used:
[1] = biological target: T1, hMAO-A (Homo sapiens, UniProt P21397); assay: biochemical; details: for remaining activity at 10 µM: read-out: Residual Activity at 10 µM (%) hMAO-A
T1 construct: purchased Sigma-Aldrich
T1 sequence (P21397 1-527): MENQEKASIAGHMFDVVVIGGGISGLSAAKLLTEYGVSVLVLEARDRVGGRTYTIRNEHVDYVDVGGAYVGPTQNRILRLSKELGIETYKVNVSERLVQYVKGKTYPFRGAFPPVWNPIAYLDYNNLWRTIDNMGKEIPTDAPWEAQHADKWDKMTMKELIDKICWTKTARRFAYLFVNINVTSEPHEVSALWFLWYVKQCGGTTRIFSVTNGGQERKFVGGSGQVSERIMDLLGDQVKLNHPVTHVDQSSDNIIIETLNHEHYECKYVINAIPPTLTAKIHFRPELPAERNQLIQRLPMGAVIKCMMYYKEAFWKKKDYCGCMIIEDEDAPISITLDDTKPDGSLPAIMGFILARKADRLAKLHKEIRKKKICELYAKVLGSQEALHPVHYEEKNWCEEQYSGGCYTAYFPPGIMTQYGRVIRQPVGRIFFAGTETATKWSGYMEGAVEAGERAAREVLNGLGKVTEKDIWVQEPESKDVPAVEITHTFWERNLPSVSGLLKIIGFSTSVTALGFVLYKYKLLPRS
Procedure: (§1) All other chemicals were of reagent grade.
(§2) hMAO-A and -B activities were determined using a continuous spectrophotometric method, as described previously. […] AChE and BChE activities were assayed as described by Ellman et al., with slight modification. Reactions were performed using AChE and BChE in the 0.5 mL reaction mixtures including 0.5 mM substrate (ATCI and BTCI, respectively) and color reagent (DTNB). […] Reaction rates are expressed as changes in absorbance per min.. Inhibitory activities of AChE and BChE were measured after preincubating enzyme with inhibitors for 15 min before adding DTNB and each substrate.
Inhibitory types and Ki values were determined using Lineweaver-Burk plots and secondary plots of their slopes, respectively.

[2] = biological target: T2, hMAO-B (Homo sapiens, UniProt P27338); assay: biochemical; assay type: biochemical; details: for remaining activity at 10 µM: read-out: Residual Activity at 10 µM (%) hMAO-B; for SI: hMAO-B selectivity: IC50 of hMAO-A divided by IC50 of hMAO-B
T2 construct: purchased Sigma-Aldrich
T2 sequence (P27338 1-520): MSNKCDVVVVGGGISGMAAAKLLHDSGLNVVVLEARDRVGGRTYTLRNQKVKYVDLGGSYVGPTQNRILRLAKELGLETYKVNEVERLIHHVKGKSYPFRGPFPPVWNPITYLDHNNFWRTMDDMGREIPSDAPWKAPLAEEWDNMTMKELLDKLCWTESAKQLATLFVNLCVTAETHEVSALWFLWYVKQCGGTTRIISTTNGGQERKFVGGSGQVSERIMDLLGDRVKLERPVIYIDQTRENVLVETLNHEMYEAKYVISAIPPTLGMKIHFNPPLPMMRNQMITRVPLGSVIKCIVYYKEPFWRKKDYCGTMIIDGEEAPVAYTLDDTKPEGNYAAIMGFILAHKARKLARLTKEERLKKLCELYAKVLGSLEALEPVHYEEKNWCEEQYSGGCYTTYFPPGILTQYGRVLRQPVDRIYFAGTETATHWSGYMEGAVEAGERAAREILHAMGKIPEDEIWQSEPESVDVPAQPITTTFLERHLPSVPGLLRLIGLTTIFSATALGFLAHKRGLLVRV
Procedure: as §1
as §2, with “substrate. […]” for “substrate.”

[3] = biological target: T3, AChE (Electrophorus electricus, UniProt O42275); assay: AChE inhibition (Ellman method); assay type: biochemical; details: read-out: Residual Activity at 10 µM (%) AChE
T3 construct: purchased Sigma-Aldrich
T3 sequence (O42275 24-633): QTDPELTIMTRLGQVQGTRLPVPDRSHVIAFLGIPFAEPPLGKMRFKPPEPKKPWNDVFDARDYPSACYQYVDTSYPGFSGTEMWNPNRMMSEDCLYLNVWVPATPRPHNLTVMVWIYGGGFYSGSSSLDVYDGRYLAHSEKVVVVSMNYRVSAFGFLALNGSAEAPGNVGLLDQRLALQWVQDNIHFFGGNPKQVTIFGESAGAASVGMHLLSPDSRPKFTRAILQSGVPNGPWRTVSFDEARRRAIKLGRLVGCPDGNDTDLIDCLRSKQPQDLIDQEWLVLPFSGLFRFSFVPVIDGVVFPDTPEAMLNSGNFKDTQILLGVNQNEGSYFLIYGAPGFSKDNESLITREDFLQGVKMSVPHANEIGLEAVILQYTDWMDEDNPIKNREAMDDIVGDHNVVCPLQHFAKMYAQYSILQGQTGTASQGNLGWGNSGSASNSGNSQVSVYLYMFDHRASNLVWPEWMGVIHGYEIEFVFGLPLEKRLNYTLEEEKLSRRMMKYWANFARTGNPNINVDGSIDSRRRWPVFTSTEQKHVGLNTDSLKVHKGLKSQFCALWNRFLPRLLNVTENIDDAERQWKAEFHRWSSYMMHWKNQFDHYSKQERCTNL
Procedure: as §1
as §2, with “substrate. […]” for “substrate.”

[4] = biological target: T4, BChE (Equus caballus, UniProt P81908); assay: BChE inhibition (Ellman method); assay type: biochemical, equine; details: read-out: Residual Activity at 10 µM (%) BChE
T4 construct: BChE from equine serum; purchased Sigma-Aldrich; host or cells: equine serum
T4 sequence (P81908 whole entry): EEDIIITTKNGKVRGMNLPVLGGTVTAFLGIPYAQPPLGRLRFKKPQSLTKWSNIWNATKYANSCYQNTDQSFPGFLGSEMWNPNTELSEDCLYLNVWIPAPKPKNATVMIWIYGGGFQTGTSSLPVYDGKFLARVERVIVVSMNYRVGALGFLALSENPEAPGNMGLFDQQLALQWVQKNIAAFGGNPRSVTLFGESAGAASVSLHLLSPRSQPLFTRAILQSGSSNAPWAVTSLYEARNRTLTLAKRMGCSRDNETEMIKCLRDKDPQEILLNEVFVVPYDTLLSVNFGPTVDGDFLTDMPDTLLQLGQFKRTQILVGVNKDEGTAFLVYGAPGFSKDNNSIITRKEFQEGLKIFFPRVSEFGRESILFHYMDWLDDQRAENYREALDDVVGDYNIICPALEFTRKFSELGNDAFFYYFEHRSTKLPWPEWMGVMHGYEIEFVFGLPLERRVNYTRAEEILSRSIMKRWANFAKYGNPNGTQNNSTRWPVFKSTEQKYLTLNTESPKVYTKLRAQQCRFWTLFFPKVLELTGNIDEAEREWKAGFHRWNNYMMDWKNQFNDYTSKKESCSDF
Procedure: as §1
as §2, with “substrate. […]” for “substrate.”

[5] = biological target: T5, BACE1 (Homo sapiens, UniProt P56817); assay: BACE1 inhibition (fluorescent activity detection kit); assay type: biochemical; details: read-out: Residual Activity at 10 µM (%) BACE1
T5 construct: purchased Sigma-Aldrich
T5 sequence (P56817 46-501): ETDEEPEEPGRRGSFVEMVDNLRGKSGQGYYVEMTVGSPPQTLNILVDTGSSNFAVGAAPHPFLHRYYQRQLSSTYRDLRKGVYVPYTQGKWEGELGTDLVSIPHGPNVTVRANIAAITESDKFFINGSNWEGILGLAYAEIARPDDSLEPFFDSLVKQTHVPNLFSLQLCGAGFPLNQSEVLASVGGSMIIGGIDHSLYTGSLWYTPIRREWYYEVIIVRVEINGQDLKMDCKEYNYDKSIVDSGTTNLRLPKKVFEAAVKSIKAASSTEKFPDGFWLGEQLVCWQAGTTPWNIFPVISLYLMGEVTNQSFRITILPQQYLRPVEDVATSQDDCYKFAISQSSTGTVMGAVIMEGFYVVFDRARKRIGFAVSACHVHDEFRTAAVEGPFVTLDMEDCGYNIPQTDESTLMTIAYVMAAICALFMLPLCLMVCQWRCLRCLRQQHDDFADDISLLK

[6] = biological target: T2, hMAO-B; details: read-out: hMAO-B inhibitory activity; cited from earlier work

Structure (SMILES)	IC50 [1] [µM]	remaining activity at 10 µM [1] [%]	IC50 [2] [µM]	remaining activity at 10 µM [2] [%]	remaining activity at 10 µM [3] [%]	remaining activity at 10 µM [4] [%]	remaining activity at 10 µM [5] [%]	SI [2]	times lower MAO-B inhibition than compound 8 ([2]; ratio of IC50 values versus compound 8) [times]	IC50 [6] [µM]
C[C@@H]1O[C@@H](OC[C@H]2O[C@@H](Oc3c(-c4ccc(O)c(O)c4)oc4cc(O)cc(O)c4c3=O)[C@H](O)[C@@H](O)[C@@H]2O)[C@H](O)[C@H](O)[C@H]1O [Compound 1, rutin]	> 40	96.8 ± 1.52	> 40	75.2 ± 6.76	92.4 ± 7.16	99.2 ± 0.88	82.6 ± 3.77			
COc1cc2c(cc1O[C@@H]1O[C@H](CO)[C@@H](O)[C@H](O)[C@H]1O)O[C@H](c1ccccc1)[C@@H](O)C2=O [Compound 2, (2R,3R)-3-hydroxy-7-O-β-D-glucopyranoside-6-methoxyflavanone]	> 40	98.3 ± 2.01	> 40	69.6 ± 2.46	84.8	97.5 ± 0.42	164 ± 2.96			
COc1cc([C@H]2OC[C@H]3[C@@H]2CO[C@@H]3c2cc(OC)c(O[C@@H]3O[C@H](CO)[C@@H](O)[C@H](O)[C@H]3O)c(OC)c2)cc(OC)c1O [Compound 3, (–)-syringaresinol-4-O-β-D-glucopyranoside]	> 40	80 ± 2.02	> 40	93.6 ± 3.47	95.22 ± 0.08	98.9 ± 1.54	76.7 ± 4.92			
COc1ccc(-c2coc3cc(O[C@@H]4O[C@H](CO)[C@@H](O)[C@H](O)[C@H]4O)ccc3c2=O)cc1 [Compound 4, ononin]	> 40	98.3 ± 1.64	28.5 ± 1.55	63.5 ± 1.23	86.1 ± 1.79	96.7 ± 1.68	85.9 ± 0.08	>1.40		
COc1cc([C@H]2OC[C@H]3[C@@H]2CO[C@@H]3c2cc(OC)c(O)c(OC)c2)cc(OC)c1O [Compound 5, (+)-syringaresinol]	> 40	80.4 ± 6.57	24.3 ± 2.2	63.2 ± 6.24			81.7 ± 4.01			
COc1cc2c(cc1O)O[C@H](c1ccccc1)[C@@H](O)C2=O [Compound 6, (2R,3R)-3,7-dihydroxy-6-methoxyflavanone]	> 40	94.8 ± 1.9	> 40	94.6 ± 4.21	84.3 ± 1.31	91.8 ± 1.35	95.72 ± 0.86			
COc1cc(O)c2c(=O)c(-c3ccc(O)cc3O)coc2c1 [Compound 7, cajanin]	13.1 ± 0.23	56.9 ± 0.92	5.18 ± 0.11	31.6 ± 4.21	70.8 ± 7.2	86.9 ± 2.11	83.25 ± 0.45	2.53		
COc1cc(O)c2c(=O)c(-c3ccc(O)cc3)coc2c1 [Compound 9, prunetin]	2.49 ± 0.32	24.8 ± 1.22	5.18 ± 0.059	30.8 ± 0.82	83.2 ± 4.76	93 ± 0.65	87.73 ± 0.59	0.48		
COc1cc(O)c2c(=O)c(-c3ccc(OC)c(O)c3)coc2c1 [Compound 10, 7,4′-dimethyl-3′-hydroxygenistein]	8.05 ± 0.1	41 ± 1.09	3.47 ± 0.055	16.9 ± 2.47	78.4 ± 3.4	98.1 ± 1.98	78.86 ± 0.56	2.32		
COc1ccc(-c2coc3cc(OC)ccc3c2=O)cc1 [Compound 11, 7,4′-dimethoxyisoflavone]	9.8 ± 0.27	49.1 ± 2.25	13.7 ± 0.1	62 ± 1.09	82.7 ± 5.44	98.7 ± 0.66	91.96 ± 0.59	0.72		
COc1ccc2c(c1)OC[C@H]1c3cc4c(cc3O[C@@H]21)OCO4 [Compound 12, 3-methoxy-8,9-methylenedioxypterocarpan]	12.5 ± 0.33	60.3 ± 0.9	3.36 ± 0.09	13 ± 0.72	84.9 ± 0.61	93.6 ± 2.11	102.4 ± 0.4	3.72	7.47	
COc1ccc(-c2cc(=O)c3c(O)cc(OC)cc3o2)cc1 [acacetin 7-methyl ether]										0.2
COc1ccc(-c2coc3cc(O)ccc3c2=O)cc1O [calycosin]										0.24
